Data on one compound can be found in ChEMBL document CHEMBL5505983, “Design, synthesis, and molecular modeling studies of novel 2-quinolone-1,2,3-triazole-α-aminophosphonates hybrids as dual antiviral and antibacterial agents” (Eur J Med Chem, 2024).

Usually IC50 stands for the concentration needed to halve the response being measured.

In the assay the test system is SARS-CoV-2. Kind of assay: Antiviral activity against SARS-CoV-2 HCoV-19/Egypt/NRC-03/2020 infected in African green monkey Vero E6 cells assessed as inhibition of virus induced cytopathic effect pre-infected with virus for 1 hr followed by compound addition and measured after 72 hrs by crystal violet staining based analysis. Format: functional, organism-based. To be noted: Severe acute respiratory syndrome coronavirus 2, HCoV-19/Egypt/NRC-03/2020, Vero C1008. A general note: Protection from cytopathic effect is a common read-out in antiviral testing.

For the compound `Fc1ccc2nc(C(F)(F)F)cc(OCc3cn(-c4ccccc4Cl)nn3)c2c1`, the IC50 was determined as 60 µM.
